Results as given in patent publication US8541455B2, “Derivatives of 2-pyridin-2-yl-pyrazol-3(2H)-one, preparation and therapeutic use thereof as HIF activators” (Sanofi, priority 2008, dated 2013).
Counter-ions that a name gives are not always drawn.

What was measured:
HIF1-alpha = assay: Measurement of the stabilization of HIF1-alpha in HEKEA cells (beta-galactosidase complementation, luminescence); assay type: cell-based, human; conditions: HEKEA_HIF1-alphaPLBL cells, 6 hours incubation under normoxia; concentration that produces 50% of the maximum response of this same compound
From the text: Furthermore, a subject of the invention is also a uniform test process for the direct measurement by beta-galactosidase complementation of the amount of HIF1-alpha protein in the nucleus of cells, preferably HEK cells, after treating the said cells with one or more test compounds, which consists in: • (a) inoculating, preferably in 384-well plates, the said cells in a suitable culture medium, preferably 1% foetal calf serum (abbreviated as FCS); • (b) adding the test compound(s) at a suitable concentration in a suitable solvent to the cells previously inoculated in the said culture medium; preferably the test compounds are diluted in 0.1% FCS; • (c) incubating the said cells thus prepared in an indicator at about 37° C., advantageously for about 6 hours; • (d) lysing the cells with a lysis buffer containing a chemiluminescent substrate for beta-galactosidase; • (e) incubating in the absence of light, before reading and measuring the luminescence, which is a function of the beta-galactosidase activity.
Many tests exist describing the indirect measurement of the activity of HIF via reporter gene systems (HRE-luciferase) or via the measurement of HIF-induced proteins (for example VEGF or EPO). Furthermore, the only tests that allow direct measurement of the amount of HIF1-alpha protein in cells are tests using antibodies, for instance Western blotting comprising phases of cell extraction (total lysates or nuclear extracts) that are consuming in terms of cells and time, thus limiting the compound screening capacity. The object was thus to develop a sensitive screening test, adaptable to 384-well plates, for directly measuring the amount of HIF1-alpha protein in the nucleus of cells. This test was established in HEK cells ([…]).
The test is a cell test based on the principle of enzyme complementation, the enzyme used herein being beta-galactosidase. HEKEA cells are HEK cells stably expressing, and restricted in their nucleus, mutant beta-galactosidase (omega fragment, also known as EA) (line sold by DiscoverX). This construct makes it possible to obtain beta-galactosidase activity only when the protein comprising the Prolabel complementation fragment has migrated into the nucleus.
The protein of interest comprising the Prolabel fragment is in this case an HIF1-alpha or HIF1-alpha mutated at the two prolines 402 and 564 replaced with alanines, is C-terminal fused via molecular biology (DiscoverX vector sold by Clontech) with the small complementation peptide fragment (Prolabel or ED, about 4 kDa). The vector coding for the chimeric protein HIF1-alpha_Prolabel is then transfected into HEKEA cells to obtain stable clones (HEKEA_HIF1-alphaPLBL).
The amount of C-terminal Prolabel-“labelled” HIF1-alpha protein obtained after treating the cells to hypoxia or compounds that are potentially HIF activators is measured by adding to the cells a lysis buffer containing a chemiluminescent substrate for beta-galactosidase.
The measurement of the beta-galactosidase activity will be proportional to the amount of Prolabel and thus of HIF1-alpha that has migrated into the nucleus of the cells.
• 1.3.1 Experiment Plan • 1) Inoculation of the cells on D0 • 2) Adherence for 24 hours under normoxia • 3) Preparation and addition of the products (Biomek 2000 and FX) on D+1 • 4) Incubation under normoxia for 6 hours • 5) Reading of the plates (by luminescence)
The cells are inoculated with Multidrop in white, opaque-bottomed 384-well plates (Greiner ref 3704), in 30 μl of culture medium (1% FCS) at 10 000 cells/well (cell plate). • 1.3.3 Treatment • Preparation of the Dilution Plate (DL Plate)
The test products are prepared at 3×10^−2 M in 100% DMSO and then diluted to 3×10^−4 M in medium containing 0.1% FCS (10 μl in 990 μl of MEM). They are then deposited by hand into column 12 of a round-bottomed 96-well plate (200 μl of each compound) known as the dilution plate (dl). […]

[1] = tested on: EPO secretion by Hep3B cells; assay: Measurement of the secretion of EPO by Hep3B hepatocytes (ELISA on supernatant); assay type: cell-based; conditions: Homo sapiens, 18 hours incubation under normoxia, EPO in supernatant, 50% of the maximum response of this same compound
From the text: (§1) 2. Measurement of the Secretion of VEGF and EPO by Hep3B Hepatocytes 2.1. Object
(§2) HIF is a transcription factor involved in the adaptation of cells to hypoxia. Since the genes activated by HIF are involved in the adaptive response of cells to hypoxia and of tissues to ischaemia, the object is to identify and characterize compounds that stabilize HIF1-alpha in cells in order to amplify or mimic its beneficial effect. HIF1-alpha was identified following the analysis of the EPO gene promoter, which makes this protein one of the first markers of HIF1-alpha activation. Moreover, VEGF is also identified in the literature as one of the main markers of HIF activation. It is for this reason that measurement of these two proteins was selected for characterizing compounds that are HIF activators in Hep3B cells.
(§3) The object was thus to develop a sensitive screening test, adaptable to 96-well plates, for directly measuring the amount of VEGF and EPO in the supernatant of the Hep3B cells (cells derived from a human hepatocarcinoma) in response to the potential HIF activators.
(§4) The test is an ELISA test for measuring VEGF and EPO in the supernatant of Hep3B cells treated under hypoxia or with deferoxamine as controls or with the potential HIF activators. The test was adapted to a 96-well plate, allowing greater compound screening capacity.
(§5) • 2.3.1 Experiment Plan • 1) Inoculation of the cells on D0 • 2) Adherence for 6 hours under normoxia • 3) Preparation and addition of the products (Biomek 2000 and FX) • 4) Incubation under normoxia for 18 hours • 5) EPO and VEGF assay in the supernatant on D+1 • 2.3.2 Inoculation of the Cells
(§6) The cells are subcultured into 100 μl of culture medium (10% FCS) in black, opaque-bottomed 96-well plates (reference Costar 3916) at 30 000 cells/well, with Multidrop. • 2.3.3 Treatment of the Cells
(§7) The test products are prepared at 10^−2 M in 100% DMSO and then diluted to […] in medium containing 0.1% FCS (6 μl in 194 μl of MEM). 200 μl of each compound are deposited in column 12 of a 96-well plate. Dilution ranges from […] to 3×10^−8M are prepared with Biomek 2000 (programme: range of 9 points in series). 100 μl of MEM 0.1% FCS and Deferoxamine 5×10^−3M are added as controls to column 3 and, respectively, to wells A,B,C,D and wells E,F,G,H • DL Plate Distribution in Cell Plates
(§8) The medium of the cells inoculated the day before into 96-well plates is changed for 90 μl of medium containing 0.1% FCS and 10 μl are distributed with FX 96 from the 96-well DL plates to the cell plates.
(§9) The cell plates thus treated are placed for 18 hours in an incubator at 37° C. (ambient O2, 6% CO2).
(§10) The supernatants (80 μl) of the Hep3B cells in the 96-well plates treated with the potential HIF activators are recovered with a multichannel pipette for simultaneous assay of the VEGF and the EPO by ELISA according to the supplier's instructions (Kit EPO Mesoscale (ref K15122B-2)).
(§11) The activating activity of a compound with respect to HIF is given by the concentration that produces 50% of the maximum response of this same compound in Table IV below.

[2] = tested on: VEGF secretion by Hep3B cells; assay: Measurement of the secretion of VEGF by Hep3B hepatocytes (ELISA on supernatant); assay type: cell-based; conditions: Homo sapiens, 18 hours incubation under normoxia, VEGF in supernatant, 50% of the maximum response of this same compound
From the text: as §1, §2, §3, §4, §5, §6, §7, §8, §9, §10, §11

EC50 (HIF1-alpha) [µM] | melting point [°C] | SMILES | EC50 [1] [µM] | EC50 [2] [µM]
4.8 | 212 | CCN(c1ccccc1)S(=O)(=O)c1ccc(-n2[nH]c(C)c(Cc3ccccc3)c2=O)nc1 [Compound 42] | 1.1 | 1.3
7.5 | 130 | CCN(c1ccccc1)S(=O)(=O)c1ccc(-n2[nH]c(C)c(Cc3ncccc3OC)c2=O)nc1 [Compound 81] | 1.2 | 1.9
4.7 | 126 | CCN(c1ccccc1)S(=O)(=O)c1ccc(-n2[nH]c(C)c(Cc3cccc(OCCOC)c3)c2=O)nc1 [Compound 38, N-ethyl-6-{4-[3-(2-methoxyethoxy)benzyl]-3-methyl-5-oxo-2,5-dihydro-1H-pyrazol-1-yl}-N-phenylpyridine-3-sulfonamide] | 1 | –
1.8 | 224 | CCN(c1ccccc1)S(=O)(=O)c1ccc(-n2[nH]c(C)c(Cc3ccc(S(C)(=O)=O)cc3)c2=O)nc1 [Compound 39] | 2 | –
– | – | CCN(c1ccccc1)S(=O)(=O)c1ccc(-n2[nH]c(C)c(Cc3c(F)cccc3Cl)c2=O)nc1 [Compound 20, 6-[4-(2-chloro-6-fluorobenzyl)-3-methyl-5-oxo-2,5-dihydro-1H-pyrazol-1-yl]-N-ethyl-N-phenylpyridine-3-sulfonamide] | 1 | 1.1
2.6 | 122 | CCN(c1ccccc1)S(=O)(=O)c1ccc(-n2[nH]c(C)c(Cc3cccc(N(C)C)c3)c2=O)nc1 [Compound 53, 6-{4-[3-(dimethylamino)benzyl]-3-methyl-5-oxo-2,5-dihydro-1H-pyrazol-1-yl}-N-ethyl-N-phenylpyridine-3-sulfonamide] | 0.9 | 3.2
3.3 | 146 | CCN(c1ccccc1)S(=O)(=O)c1ccc(-n2[nH]c(C)c(C3(c4ccccc4)CC3)c2=O)nc1 [Compound 80, N-ethyl-6-[3-methyl-5-oxo-4-(1-phenylcyclopropyl)-2,5-dihydro-1H-pyrazol-1-yl]-N-phenylpyridine-3-sulfonamide] | 0.4 | 0.9
3.7 | 158 | CCN(c1ccccc1)S(=O)(=O)c1ccc(-n2[nH]c(C)c(CCc3ccccc3)c2=O)nc1 [Compound 74, N-ethyl-6-[3-methyl-5-oxo-4-(2-phenylethyl)-2,5-dihydro-1H-pyrazol-1-yl]-N-phenylpyridine-3-sulfonamide] | 0.3 | –
2.5 | – | CC(C)(C)NS(=O)(=O)c1ccc(-n2[nH]cc(Cc3cccnc3)c2=O)nc1 [Compound 98B, N-tert-butyl-6-[5-oxo-4-(pyridin-3-ylmethyl)-2,5-dihydro-1H-pyrazol-1-yl]pyridine-3-sulfonamide hydrochloride] | – | –
4.8 | 122 | CCN(c1ccccc1)S(=O)(=O)c1ccc(-n2[nH]c(C)c(C(C)(C)c3ccccc3)c2=O)nc1 [Compound 77, N-ethyl-6-[3-methyl-4-(1-methyl-1-phenylethyl)-5-oxo-2,5-dihydro-1H-pyrazol-1-yl]-N-phenylpyridine-3-sulfonamide] | 1.4 | 1.3
3.1 | 140 | CCN(c1ccccc1)S(=O)(=O)c1ccc(-n2[nH]c(C)c(Cc3cc(OC)ccc3OC)c2=O)nc1 [Compound 44] | 1.9 | 2.1
1.8 | 188 | CCN(c1ccccc1)S(=O)(=O)c1ccc(-n2[nH]c(C)c(CCc3ccccn3)c2=O)nc1 [Compound 85] | 2.5 | 2.5
2.1 | – | CCN(c1ccccc1)S(=O)(=O)c1ccc(-n2[nH]c(C)c(Cc3cccc(OCCN(C)C)c3)c2=O)nc1 [Compound 56, 6-(4-{3-[2-(dimethylamino)ethoxy]benzyl}-3-methyl-5-oxo-2,5-dihydro-1H-pyrazol-1-yl)-N-ethyl-N-phenylpyridine-3-sulfonamide hydrochloride] | 2 | 2.5
1.1 | 162 | CCN(c1ccccc1)S(=O)(=O)c1ccc(-n2[nH]c(C)c(Cc3cc(OC)cc(OC)c3)c2=O)nc1 [Compound 47] | 2 | 2.8
3.8 | 178 | CCN(c1ccccc1)S(=O)(=O)c1ccc(-n2[nH]c(C)c(Cc3ccc(Cl)cc3Cl)c2=O)nc1 [Compound 14] | 0.3 | –
0.35 | – | CCN(c1ccccc1)S(=O)(=O)c1ccc(-n2[nH]cc(Cc3ccccc3)c2=O)nc1 [Compound 93, 6-(4-benzyl-5-oxo-2,5-dihydro-1H-pyrazol-1-yl)-N-ethyl-N-phenylpyridine-3-sulfonamide] | 0.4 | 0.4
3.1 | – | CCN(c1ccccc1)S(=O)(=O)c1ccc(-n2[nH]c(C)c(Cc3cccnc3)c2=O)nc1 [Compound 43] | 1.5 | 1.7
